Data as given in ChEMBL document CHEMBL1250438, “Identification and evaluation of apoptotic compounds from Garcinia paucinervis” (Bioorg Med Chem, 2010).
The source made the active and inactive calls. The calls are words filed in the database; no cut-off is given here.

Legend:
Type in all cases: functional, cell-based
HeLa C3 [1] = test: Induction of apoptosis in human HeLaC3 cells assessed as reduction of yellow fluorescent protein/cyan fluorescent protein emission ratio below 3 at 10 uM after 72 hrs by FRET assay
HeLa C3 [2] = test: Induction of apoptosis in human HeLaC3 cells assessed as reduction of yellow fluorescent protein/cyan fluorescent protein emission ratio below 3 at 100 uM after 72 hrs by FRET assay
HeLa C3 [3] = test: Induction of apoptosis in human HeLaC3 cells assessed as reduction of yellow fluorescent protein/cyan fluorescent protein emission ratio below 3 at 50 uM after 72 hrs by FRET assay
HeLa C3 [4] = test: Induction of apoptosis in human HeLaC3 cells assessed as reduction of yellow fluorescent protein/cyan fluorescent protein emission ratio below 3 at 25 uM after 72 hrs by FRET assay
HeLa C3 [5] = test: Induction of apoptosis in human HeLaC3 cells assessed as morphological changes at 25 uM after 24 to 72 hrs
HeLa C3 [6] = test: Induction of apoptosis in human HeLaC3 cells at < 100 uM after 72 hrs
HeLa [7] = test: Cytotoxicity against human HeLa cells after 72 hrs by MTT assay
HeLa [8] = test: Induction of apoptosis in human HeLa cells assessed as cleavage of PARP at 25 uM after 36 hrs by Western blotting
HeLa C3 [9] = test: Induction of apoptosis in human HeLaC3 cells assessed as reduction of yellow fluorescent protein/cyan fluorescent protein emission ratio below 3 at 25 uM after 48 hrs by FRET assay
HeLa [10] = test: Induction of apoptosis in human HeLa cells assessed as cleavage of PARP at 25 uM after 12 hrs by Western blotting
HeLa C3 [11] = test: Induction of apoptosis in human HeLaC3 cells assessed as reduction of yellow fluorescent protein/cyan fluorescent protein emission ratio below 3 at 25 uM after 24 hrs by FRET assay
HeLa C3 [12] = test: Induction of apoptosis in human HeLaC3 cells at 50 to 100 uM after 72 hrs
HeLa C3 [13] = test: Induction of apoptosis in human HeLaC3 cells assessed as morphological changes at 500 nM after 24 to 72 hrs

SMILES | Activity (HeLa C3 [1]) | Activity (HeLa C3 [2]) | Activity (HeLa C3 [3]) | Activity (HeLa C3 [4]) | Activity (HeLa C3 [5]) | Activity (HeLa C3 [6]) | IC50 (HeLa [7]) | Activity (HeLa [8]) | Activity (HeLa C3 [9]) | Activity (HeLa [10]) | Activity (HeLa C3 [11]) | Activity (HeLa C3 [12]) | Activity (HeLa C3 [13])
CC(C)=CCC/C(C)=C/CC/C(C)=C/CCC1(C)CCc2c(C)ccc(O)c2O1 (configuration not stated) | inactive | inactive | Active | inactive | – | – | – | – | – | – | – | – | –
CC(C)=CCc1c(O)cc(O)c2c(=O)c3cc4c(c(O)c3oc12)OC(C)(C)C=C4 | inactive | Active | Active | Active | Active | – | – | – | – | – | – | – | –
C=C(C)[C@H]1C/C=C(\C)CC/C=C(\C)CC/C=C(\C)CC1 | inactive | Active | inactive | inactive | – | – | – | – | – | – | – | – | –
CC(C)=CCC/C(C)=C/C[C@H]1C[C@]2(CC=C(C)C)C(=O)[C@@](CC=C(C)C)(C(=O)C(C(=O)c3ccc(O)c(O)c3)=C2O)[C@]1(C)CCC=C(C)C | inactive | Active | Active | Active | Active | – | – | – | – | – | – | – | –
CC1=C(C)C(=O)C(CCC(C)(O)CCCC(C)CCCC(C)CCCC(C)C)=C(C)C1=O (configuration not stated) | inactive | inactive | inactive | inactive | – | Active | – | – | – | – | – | – | –
CC(C)=CCc1cc2c(=O)c3c(O)c(CC=C(C)C)c(O)c(CC=C(C)C)c3oc2c(O)c1O | inactive | Active | Active | inactive | – | – | – | – | – | – | – | – | –
COc1c(O)c(CC=C(C)C)cc2c1Oc1cc(O)c(CC=C(C)C)c(O)c1C(=O)O2 [PAUCINERVIN A] | inactive | Active | inactive | inactive | – | – | 95.6 µM | – | – | – | – | – | –
CC1=CCCC(C)(C)C1CCC(C)CCCC(C)CCO (configuration not stated) | inactive | inactive | inactive | inactive | – | – | – | – | – | – | – | – | –
COC(=O)c1c(O)cc(O)cc1Oc1c(O)c(OC)cc(CC=C(C)C)c1OC [PAUCINERVIN B] | inactive | Active | Active | Active | Active | – | 9.5 µM | Active | Active | Active | – | – | –
CC(C)=CCc1c(O)cc2oc3ccc(O)cc3c(=O)c2c1O | inactive | inactive | inactive | inactive | – | Active | – | – | – | – | – | – | –
CC1(C)C=Cc2c(c3ccoc3c3oc4c(O)cccc4c23)O1 [PAUCINERVIN C] | inactive | Active | inactive | inactive | – | – | 52.5 µM | – | – | – | – | – | –
CC(C)=CC[C@H]1C[C@@]23C[C@@H](CC=C(C)C)C(C)(C)[C@@](CC=C(C)C)(C(=O)C(C(=O)c4ccc(O)c(O)c4)=C2OC1(C)C)C3=O | inactive | inactive | inactive | Active | Active | – | – | – | – | – | Active | Active | –
CC(=O)O[C@H]1C(=O)[C@@]2(C)[C@H]([C@H](OC(=O)c3ccccc3)[C@]3(O)C[C@H](OC(=O)[C@H](O)[C@@H](NC(=O)c4ccccc4)c4ccccc4)C(C)=C1C3(C)C)[C@]1(OC(C)=O)CO[C@@H]1C[C@@H]2O | – | – | – | – | – | – | – | – | – | – | – | – | Active
C=CC(C)(C)c1c(OC)c(CC=C(C)C)c(O)c2c(=O)c3ccc(O)c(O)c3oc12 | inactive | Active | Active | inactive | – | – | – | – | – | – | – | – | –
C=C(C)[C@@H]1C[C@]23C[C@H](CC=C(C)C)C(C)(C)[C@](CC=C(C)C)(C(=O)C(C(=O)c4ccc(O)c(O)c4)=C2O[C@H]1C=C(C)C)C3=O | inactive | Active | Active | Active | Active | – | – | – | – | – | Active | – | –
CC(C)=CCC/C(C)=C/CC/C(C)=C/CCC1(C)CCc2c(C)cc(O)c(O)c2O1 (configuration not stated) [PAUCINERVIN D] | inactive | Active | Active | inactive | – | – | 29.5 µM | – | – | – | – | – | –
CC1(C)C=Cc2c(cc3oc4c(O)c(O)ccc4c(=O)c3c2O)O1 | Active | Active | inactive | Active | Active | – | – | Active | Active | Active | – | Active | –
